Results reported in US7279324B2, “Nucleic acid encoding G-protein coupled receptor with modified DRY motif” (Duke University, priority 2001, dated 2007).
Residue numbers refer to the chain shown, from its start. “Also recorded” adds a separate entry of the source.

How the values were obtained:
mock = assay: Whole cell cAMP accumulation in HEK-293 cells; format: cell-based; conditions: 2.5 μM AVP for 15 min., mean±SD, n=3
AT1AR R126H-GFP = molecular target: T1, AT1AR R126H-GFP (Rattus norvegicus, UniProt P25095, L81C/R126H/S109T); assay: Receptor-GFP localization by confocal microscopy in HEK-293 cells; format: cell-based; conditions: cultured in 1 μM L158,809, no agonist
T1 construct: expressed in transfected cells; host or cells: HEK-293
T1 sequence (P25095 1-359 L81C/S109T/R126H): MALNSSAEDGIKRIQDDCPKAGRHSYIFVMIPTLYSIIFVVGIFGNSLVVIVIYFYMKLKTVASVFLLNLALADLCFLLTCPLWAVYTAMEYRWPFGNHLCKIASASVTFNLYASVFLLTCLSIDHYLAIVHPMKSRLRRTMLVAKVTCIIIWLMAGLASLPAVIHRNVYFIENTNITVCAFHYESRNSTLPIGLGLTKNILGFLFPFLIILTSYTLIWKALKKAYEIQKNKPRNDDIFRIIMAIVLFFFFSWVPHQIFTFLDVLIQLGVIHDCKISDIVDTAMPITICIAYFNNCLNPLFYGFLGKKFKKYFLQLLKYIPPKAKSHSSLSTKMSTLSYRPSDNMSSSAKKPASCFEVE
Protocol: (§1) Cell Culture and Transfection—For V2R experiments: HEK-293 cells were grown in Eagle's minimal essential medium with Earle's salt (MEM) supplemented with 10% fetal bovine serum and a 1:100 dilution of penicillin/streptomycin (Sigma Chemicals, St. Louis, Mo.). Cells were transiently transfected with plasmid cDNA using a modified calcium phosphate co-precipitation method as described in Barak et al., 1997, Mol. Pharmacol., 51:177–84. For α1B-AR and AT1AR experiments: Cells were transiently transfected in 10 cm^2 dishes (Falcon) with 1 μg receptor or GRK plasmid cDNA in pCDNA3.1(−) using above modified calcium phosphate transfection coprecipitation method for inositol phosphate and binding assays. For confocal microscopy, cells were transiently transfected in collagen (Sigma) coated 35 mm^2 glass bottom confocal dishes (MatTek, Ashland, Mass.) with Lipofectamine®2000 and Opti-MEM media (Life Technologies) using a standard method (Ciccarone, V., et al., 1999, Focus 21.2, 54–55). Cells for confocal microscopy were transfected with 30 ng of βarrestin or receptor plasmid cDNA in pEGFP and 250 ng of dynamin(K44A), GRK, or receptor in pcDNA3.1/zeo.
(§2) Confocal Microscopy—HEK-293 cells were plated on the day following transfection onto collagen (Sigma Chemical, St. Louis, Mo.) treated 35 mm^2 glass-bottomed culture dishes. […]

α1B-AR R143 mutants [1] = assay: [3H]inositol phosphate accumulation in HEK-293 cells; format: cell-based, golden hamster; conditions: 10 μM NE; R143 substituted with Ala, Glu, His or Asn
Protocol: (§4) Inositol Phosphate Determination—Transiently transfected HEK-293 cells in 10 cm^2 dishes were plated onto 12-well plates (Falcon) coated with 25 mg/ml poly-D-lysine (Sigma) and incubated overnight in MEM+10% FBS (fetal bovine serum) at 37° C. To assay for inositol phosphate production, cells were incubated overnight at 37° C. in labeling media (1 μCi/0.5 ml/well of [^3H]inositol in MEM+5% fetal bovine serum). Cells were washed with MEM, 20 mM HEPES, pH 7.4, 20 mM LiCl for 5 minutes at 37° C. and then treated with agonist.

wild type α1B-AR [2] = molecular target: T2, wild type α1B-AR (Mesocricetus auratus, UniProt P18841); assay: [3H]prazosin whole cell binding, Scatchard analysis, HEK-293 cells; parameters: species or system golden hamster; conditions: [3H]prazosin Scatchard, read-out: KD for NE
T2 construct: expressed in transfected cells; host or cells: HEK-293
T2 sequence (P18841 1-515): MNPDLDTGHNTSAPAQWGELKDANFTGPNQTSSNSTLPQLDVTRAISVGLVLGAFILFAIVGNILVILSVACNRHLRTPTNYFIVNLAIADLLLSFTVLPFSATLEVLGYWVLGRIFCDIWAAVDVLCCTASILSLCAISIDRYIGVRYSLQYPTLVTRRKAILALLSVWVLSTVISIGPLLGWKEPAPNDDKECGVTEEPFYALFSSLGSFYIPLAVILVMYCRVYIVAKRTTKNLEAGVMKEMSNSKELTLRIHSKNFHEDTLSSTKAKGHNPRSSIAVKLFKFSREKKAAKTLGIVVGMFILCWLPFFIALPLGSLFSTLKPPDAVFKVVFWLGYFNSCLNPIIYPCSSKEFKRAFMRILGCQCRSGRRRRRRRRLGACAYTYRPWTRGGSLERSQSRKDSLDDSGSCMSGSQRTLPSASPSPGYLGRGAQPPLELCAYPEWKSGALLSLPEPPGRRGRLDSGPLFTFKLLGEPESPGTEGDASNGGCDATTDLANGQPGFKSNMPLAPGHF
Protocol: (§5) For α1B-AR and AT1AR experiments: Transiently transfected HEK-293 cells in 10 cm^2 dishes were washed twice in cold binding buffer (MEM+2% bovine serum albumin [BSA]), incubated for 1 hour at room temperature in binding buffer with varying concentrations of [^3H]prazosin (0.25 nM–8 nM), and washed three times in cold binding buffer to remove unbound ligand. Cell bound [^3H]prazosin was measured using a scintillation counter. Nonspecific binding was determined in the presence of 1000-fold molar excess of phentolamine (10 μM). For binding assays done to measure the effect of the co-expression of dynamin(K44A) or the addition of phentolamine in FIG. 14, a fixed concentration of 8 nM [^3H]prazosin was used.

wild type α1B-AR [3] = molecular target: T2, wild type α1B-AR; assay: [3H]inositol phosphate accumulation in HEK-293 cells; format: cell-based, golden hamster; conditions: 10 μM NE, 30 min., vs absence of agonist
Protocol: as §4

wild type α1B-AR-GFP = molecular target: T3, wild type α1B-AR-GFP (Mesocricetus auratus, UniProt P18841); assay: Receptor-GFP localization by confocal microscopy in HEK-293 cells; format: cell-based, golden hamster
T3 construct: expressed in transfected cells; host or cells: HEK-293
T3 sequence (P18841 1-515): T2 sequence (P18841 1-515)
Protocol: as §1
(§3) Confocal Microscopy—HEK-293 cells were plated on the day following transfection onto collagen (Sigma Chemical, St. Louis, Mo.) treated 35 mm^2 glass-bottomed culture dishes. Confocal microscopy was performed with a Zeiss laser-scanning microscope (LSM-510). GFP images were collected using the 488 nm argon excitation and a 505 nm long pass filter. For α1B-AR and AT1AR experiments: HEK-293 cells were transiently transfected in 35 mm^2 confocal dishes. Cells were stimulated with 10 μM NE or 1 μM AngII and incubated at 37° C. for 30 minutes before viewing. Alternatively, cells were cultured overnight at 37° C. in 10 μM phentolamine or 1 μM L158,809. Confocal microscopy was performed at 100× magnification with a Zeiss laser-scanning microscope (LSM-510). GFP and FITC images were collected using 488-nm excitation and a 505-nm long-pass filter.

α1B-AR R143A = molecular target: T4, α1B-AR R143A (Mesocricetus auratus, UniProt P18841, R143A); assay: [3H]prazosin whole cell binding, Scatchard analysis, HEK-293 cells; parameters: species or system golden hamster; conditions: [3H]prazosin Scatchard, similar to wild type, read-out: KD for NE
T4 construct: expressed in transfected cells; host or cells: HEK-293
T4 sequence (P18841 1-515 R143A): T2 sequence (P18841 1-515) with R143A
Protocol: as §5

α1B-AR R143 mutants [4] = assay: βarrestin-GFP translocation in HEK-293 cells; format: cell-based, golden hamster; conditions: 10 μM NE (data not shown)
Protocol: as §1, §2

wild type α1B-AR [5] = molecular target: T2, wild type α1B-AR; assay: βarrestin-GFP translocation in HEK-293 cells; format: cell-based, golden hamster; conditions: 10 μM NE
Protocol: as §1, §2

α1B-AR R143E-GFP [6] = molecular target: T5, α1B-AR R143E-GFP (Mesocricetus auratus, UniProt P18841, R143E); assay: Receptor-GFP localization by confocal microscopy in HEK-293 cells; format: cell-based, golden hamster; conditions: cultured in 10 μM phentolamine at 37° C. overnight, no agonist
T5 construct: expressed in transfected cells; host or cells: HEK-293
T5 sequence (P18841 1-515 R143E): T2 sequence (P18841 1-515) with R143E
Protocol: as §1, §3

α1B-AR R143E-GFP [7] = molecular target: T5, α1B-AR R143E-GFP; assay: Plasma membrane receptor expression by whole cell [3H]prazosin binding; format: cell-based, golden hamster; conditions: cultured in 10 μM phentolamine at 37° C. overnight; 8 nM [3H]prazosin
Protocol: as §5

AT1AR R126H [8] = molecular target: T6, AT1AR R126H (Rattus norvegicus, UniProt P25095, L81C/R126H/S109T); assay: [3H]inositol phosphate accumulation in HEK-293 cells; format: cell-based; conditions: stimulated with AngII (1 μM, 1 μg elsewhere in the source)
T6 construct: expressed in transfected cells; host or cells: HEK-293
T6 sequence (P25095 1-359 L81C/S109T/R126H): T1 sequence (P25095 1-359 L81C/S109T/R126H)
Protocol: Inositol Phosphate Determination—Transiently transfected HEK-293 cells in 10 cm^2 dishes were plated onto 12-well plates (Falcon) coated with […] poly-D-lysine (Sigma) and incubated overnight in MEM+10% FBS (fetal bovine serum) at 37° C. To assay for inositol phosphate production, cells were incubated overnight at 37° C. in labeling media (1 μCi/0.5 ml/well of [^3H]inositol in MEM+5% fetal bovine serum). Cells were washed with MEM, 20 mM HEPES, pH 7.4, 20 mM LiCl for 5 minutes at 37° C. and then treated with agonist. Total inositol phosphate was extracted and separated as previously described in Cotecchia, S., et al., 1992, J. Biol. Chem. 267: 1633–1639.

wild type AT1AR = molecular target: T7, wild type AT1AR (Rattus norvegicus, UniProt P25095); assay: βarrestin-GFP translocation in HEK-293 cells; format: cell-based; conditions: 1 μM AngII
T7 construct: expressed in transfected cells; host or cells: HEK-293
T7 sequence (P25095 1-359): T1 sequence (P25095 1-359 L81C/S109T/R126H) with C81L, T109S, H126R
Protocol: as §1, §2

AT1AR R126H [9] = molecular target: T6, AT1AR R126H; assay: βarrestin-GFP translocation in HEK-293 cells; format: cell-based; conditions: 1 μM AngII
Protocol: as §1, §2

wild type AT1AR-GFP = molecular target: T8, wild type AT1AR-GFP (Rattus norvegicus, UniProt P25095); assay: Receptor-GFP localization by confocal microscopy in HEK-293 cells; format: cell-based; conditions: 1 μM AngII
T8 construct: expressed in transfected cells; host or cells: HEK-293
T8 sequence (P25095 1-359): T1 sequence (P25095 1-359 L81C/S109T/R126H) with C81L, T109S, H126R
Protocol: as §1, §2

For NC(=O)CC[C@@H]1NC(=O)[C@H](Cc2ccccc2)NC(=O)[C@H](Cc2ccc(O)cc2)NC(=O)[C@@H](N)CSSC[C@@H](C(=O)N2CCC[C@H]2C(=O)N[C@@H](CCCN=C(N)N)C(=O)NCC(N)=O)NC(=O)[C@H](CC(N)=O)NC1=O [AVP, Arginine vasopressin], the “stimulated cAMP response” value (mock) was 0.017±0.006 (counts of [^3H]cAMP per min. per well)/(counts of [^3H]adenine uptake per minute per well).
With CCc1nc2c(C)cc(C)nc2n1Cc1ccc(-c2ccccc2-c2nnn[nH]2)cc1 [L158,809, 2-ethyl-5,7-dimethyl-3-[[2′-(1H-tetrazol-5-yl)[1,1′-biphenyl]-4-yl]methyl]-3H-Imidazo[4,5-b]pyridine] the “distribution of receptor-GFP” value (AT1AR R126H-GFP) was “reversal of the receptor localization back to the plasma membrane; also recorded: redistribution of the receptor back to the plasma membrane”.
With NC[C@H](O)c1ccc(O)c(O)c1 [NE, Norepinephrine] the “agonist-induced IP response” value (α1B-AR R143 mutants [1]) was “significantly impaired ability to mediate an agonist-induced IP response”, the Kd (wild type α1B-AR [2]) was 1.5 to 3.5 nM and the “increase of [3H]-IP accumulation” value (wild type α1B-AR [3]) was 6 fold. The “distribution of receptor-GFP” value (wild type α1B-AR-GFP; 10 μM NE, 30 minutes at 37° C.) was “loss of plasma membrane expression and the redistribution of the receptor to endocytic vesicles”, the Kd (α1B-AR R143A) was 1.5 to 3.5 nM and the “distribution of βarrestin-GFP” value (α1B-AR R143 mutants [4]) was “enhances this translocation”. For the same molecule, the “distribution of βarrestin-GFP” value (wild type α1B-AR [5]) was “rapid translocation of βarrestin-GFP to the plasma membrane”.
Cc1ccc(N(CC2=NCCN2)c2cccc(O)c2)cc1 [phentolamine] was tested, and the “distribution of receptor-GFP” value (α1B-AR R143E-GFP [6]) was “complete reversal; also recorded: redistribution of the α1B-AR R143E-GFP from endosomes to the plasma membrane”, the “distribution of receptor-GFP” value (wild type α1B-AR-GFP; cultured in 10 μM phentolamine at 37° C. overnight) was “no alteration in the expression of the receptor at the plasma membrane; also recorded: no effect on the distribution of the wild type α1B-AR-GFP” and the “plasma membrane receptor expression (whole cell [3H]prazosin binding)” value (α1B-AR R143E-GFP [7]) was “increases to the level of the wild type receptor”.
In the case of angiotensin II [AngII], the “[3H]-IP accumulation / signaling compared to stimulated wild type AT1AR” value (AT1AR R126H [8]) is reported as “slight impairment of signaling; also recorded: levels identical to HEK cells transfected with wild type AT1AR”, the “distribution of βarrestin-GFP” value (wild type AT1AR) is reported as “redistribution of the βarrestin-GFP into endocytic vesicles” and the “distribution of βarrestin-GFP” value (AT1AR R126H [9]) is reported as “enhanced distribution of βarrestin-GFP into endocytic vesicles”. For the same molecule, the “distribution of receptor-GFP” value (wild type AT1AR-GFP) was “internalization of the receptor into endocytic vesicles”.
